The record followed here is ChEMBL document CHEMBL1152573, “Synthesis and glycogen phosphorylase inhibitory activity of N-(beta-D-glucopyranosyl)amides possessing 1,4-benzodioxane moiety” (Bioorg Med Chem, 2009).

The structures appear in SMILES notation.

Assay [1] deals with T1, Glycogen phosphorylase, muscle form (Oryctolagus cuniculus, UniProt P00489).
T1 sequence (P00489 whole entry): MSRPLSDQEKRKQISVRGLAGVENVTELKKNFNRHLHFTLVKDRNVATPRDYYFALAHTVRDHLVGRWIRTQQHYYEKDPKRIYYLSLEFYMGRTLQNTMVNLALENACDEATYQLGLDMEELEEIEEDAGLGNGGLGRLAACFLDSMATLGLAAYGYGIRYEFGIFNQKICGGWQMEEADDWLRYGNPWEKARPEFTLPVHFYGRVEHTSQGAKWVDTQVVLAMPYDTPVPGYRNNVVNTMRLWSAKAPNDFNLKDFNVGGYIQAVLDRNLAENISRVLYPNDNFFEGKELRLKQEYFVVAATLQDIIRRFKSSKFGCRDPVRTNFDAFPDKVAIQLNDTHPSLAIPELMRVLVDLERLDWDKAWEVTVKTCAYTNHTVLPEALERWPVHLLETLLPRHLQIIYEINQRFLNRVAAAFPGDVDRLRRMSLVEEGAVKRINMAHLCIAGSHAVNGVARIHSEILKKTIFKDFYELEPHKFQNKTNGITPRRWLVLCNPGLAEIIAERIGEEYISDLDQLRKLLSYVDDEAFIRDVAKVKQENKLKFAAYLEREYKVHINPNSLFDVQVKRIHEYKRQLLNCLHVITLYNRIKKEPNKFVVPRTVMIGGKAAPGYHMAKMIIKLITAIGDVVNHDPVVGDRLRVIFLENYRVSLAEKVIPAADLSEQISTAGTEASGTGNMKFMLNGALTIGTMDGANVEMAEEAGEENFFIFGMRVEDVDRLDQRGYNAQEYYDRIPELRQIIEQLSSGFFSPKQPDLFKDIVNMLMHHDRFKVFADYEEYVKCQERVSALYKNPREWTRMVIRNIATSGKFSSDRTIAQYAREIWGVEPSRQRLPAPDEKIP
In words: Inhibition of rabbit muscle glycogen phosphorylase b by cheng-prusoff equation.

Assay [2] concerns the target T1, Glycogen phosphorylase, muscle form. The assay can be described thus: Inhibition of rabbit muscle glycogen phosphorylase b.

Turning to `O=C(N[C@@H]1O[C@H](CO)[C@@H](O)[C@H](O)[C@H]1O)c1cc(Br)c2c(c1)OCCO2`, the affinity in assay [1], expressed as Ki, was 268 µM. For the same compound, inhibition in assay [2] was half-maximal at 670 µM (IC50).
Turning to `COc1cc(C(=O)N[C@@H]2O[C@H](CO)[C@@H](O)[C@H](O)[C@H]2O)cc2c1OCCO2`, the affinity in assay [1] corresponds to a Ki of 232 µM. This compound also displayed an IC50 in assay [2] of 580 µM.
In assay [1], `O=C(N[C@@H]1O[C@H](CO)[C@@H](O)[C@H](O)[C@H]1O)[C@@H]1COc2ccccc2O1` had a Ki of 120 µM. Also, in assay [2], 300 µM corresponded to half-maximal inhibition (IC50).
Regarding `O=C(N[C@@H]1O[C@H](CO)[C@@H](O)[C@H](O)[C@H]1O)[C@H]1COc2ccccc2O1`, the Ki in assay [1] was 128 µM. This compound registered an IC50 in assay [2] of 320 µM.
For `O=C(N[C@@H]1O[C@H](CO)[C@@H](O)[C@H](O)[C@H]1O)C1=COc2ccccc2O1`, the affinity in assay [1] corresponds to a Ki of 85 µM. Also, the midpoint of inhibition in assay [2], the IC50, lay at 125 µM.
Compound `O=C(N[C@@H]1O[C@H](CO)[C@@H](O)[C@H](O)[C@H]1O)c1ccc2c(c1)OCCO2` showed a Ki in assay [1] of 252 µM. The IC50 in assay [2] turned out to be 630 µM.

The term Ki denotes a measure of affinity in units of concentration, obtained from inhibition or displacement. As usually defined, the IC50 is the point on the concentration scale where inhibition reaches its midpoint.
